Source: patent US9156801B2, “2-substituted oleanolic acid derivative, method preparing for same, and application thereof” (HANGZHOU BENSHENG PHARMACEUTICAL CO., LTD., priority 2011, dated 2015)

Legend:
[1] = system: RPMI8226 cell line; assay: multiple myeloma cell growth inhibition, MTT; assay type: cell-based; details: Homo sapiens, RPMI-8226
Protocol: Multiple myeloma cell lines: RPMI8226 (multiple myeloma), purchased from Fuxiang Bio-tech Co. Ltd., Shanghai, China.
Obtaining 6000 well-growing cells as above and inoculating them into wells of a 96-well cell culture plate. The culture medium is the 1640 cell culture medium containing 10% fetal bovine serum. After adding the 2-substituted oleanolic acid derivatives of different concentrations and mixing uniformly, placing the plate in a carbon dioxide cell incubator (5% CO2) at 37° C. and incubated for 72 hours. Then the relative number of viable cells is determined by MTT method. In this experiment, cell proliferation inhibition rate in control group (not treated with any compound) is set as 0%.

[2] = system: A549 cell line; assay: solid tumor cell growth inhibition, MTT; assay type: cell-based; details: Homo sapiens
Protocol: (§1) Hep-2 (laryngeal carcinoma), A549 (human lung cancer), CaES-17 (esophageal cancer cell), PC-3 (prostate cancer), CNE (nasopharyngeal carcinoma cell), and SK-OV-3 (ovarian cancer cell), all of which are purchased from China Center For Type Culture Collection; RKO (human colon adenocarcinoma cell), MGC 803 (human gastric cancer cell), MG63 (osteosarcoma) and U87 MG (malignant glioma cell), all of which are purchased from Fuxiang Bio-tech Co. Ltd., Shanghai, China; PANC-1 (pancreatic cancer), Hep G2 (human liver cancer cell), Becap37 (human breast cancer cell), and Hela (human cervical cancer cell), all of which are donated by Cancer Research Institute of Zhejiang University, China.
(§2) Obtaining 4000 well-growing human solid tumor cells and inoculating them into wells of a 96-well cell culture plate. The culture medium is DMEM High Glucose cell culture medium containing 10% fetal bovine serum. The plate is placed in a carbon dioxide cell incubator (5% CO2) at 37° C. for 24 hours. After adding the 2-substituted oleanolic acid derivatives of different concentrations and mixing uniformly, the plate is placed in a carbon dioxide cell incubator (5% CO2) at 37° C. and incubated for 72 hours. Then the relative number of the living cells is determined by MTT method. In this experiment, the cell proliferation inhibition rate in control group (not treated with any compound) is set as 0%.

[3] = system: Hela cell line; assay: solid tumor cell growth inhibition, MTT; assay type: cell-based; details: Homo sapiens, 72 h
Protocol: as §1, §2

[4] = system: Becap37 cell line; assay: solid tumor cell growth inhibition, MTT; assay type: cell-based; details: Homo sapiens
Protocol: as §1, §2

[5] = system: U87 MG cell line; assay: solid tumor cell growth inhibition, MTT; assay type: cell-based; details: Homo sapiens, U-87 MG, 72 h
Protocol: as §1, §2

[6] = system: CNE cell line; assay: solid tumor cell growth inhibition, MTT; assay type: cell-based; details: Homo sapiens, 72 h
Protocol: as §1, §2

[7] = system: Hep-2 cell line; assay: solid tumor cell growth inhibition, MTT; assay type: cell-based; details: Homo sapiens
Protocol: as §1, §2

[8] = system: RKO cell line; assay: solid tumor cell growth inhibition, MTT; assay type: cell-based; details: Homo sapiens, 72 h
Protocol: as §1, §2

[9] = system: CaES-17 cell line; assay: solid tumor cell growth inhibition, MTT; assay type: cell-based; details: Homo sapiens, CaEs17
Protocol: as §1, §2

[10] = system: PANC-1 cell line; assay: solid tumor cell growth inhibition, MTT; assay type: cell-based; details: Homo sapiens
Protocol: as §1, §2

[11] = system: PC-3 cell line; assay: solid tumor cell growth inhibition, MTT; assay type: cell-based; details: Homo sapiens
Protocol: as §1, §2

[12] = system: MG-63 cell line; assay: solid tumor cell growth inhibition, MTT; assay type: cell-based; details: Homo sapiens
Protocol: as §1, §2

[13] = system: SK-OV-3 cell line; assay: solid tumor cell growth inhibition, MTT; assay type: cell-based; details: Homo sapiens
Protocol: as §1, §2

[14] = system: MGC 803 cell line; assay: solid tumor cell growth inhibition, MTT; assay type: cell-based; details: Homo sapiens
Protocol: as §1, §2

[15] = system: Kasumi-1 cell line; assay: leukemia cell growth inhibition, MTT; assay type: cell-based; details: Homo sapiens
Text: (§3) Leukemia cell lines: leukemia cell lines: K562/adr (drug-resistant, chronic myeloid leukemia, CML), NB4 (acute promyelocytic leukemia, AML), Kasumi-1 (acute myeloid leukemia M2 type, AML-M2), Jurkat (acute lymphoblastic leukemia, ALL), all of which are donated by Cancer Research Institute of Zhejiang University, China; and H9 (acute lymphoblastic leukemia, ALL), which is purchased from China Center for Type Culture Collection (CCTCC).
(§4) Obtaining 6000 well-growing leukemia cells and inoculating them into wells of a 96-well cell culture plate. The culture medium is the 1640 cell culture medium containing 10% fetal bovine serum. After adding the 2-substituted oleanolic acid derivatives of different concentrations and mixing uniformly, placing the plate in a carbon dioxide cell incubator (5% CO2) at 37° C. and incubated for 72 hours. Then the relative number of viable cells is determined by MTT method. In this experiment, cell proliferation inhibition rate in control group (not treated with any compound) is set as 0%.

[16] = system: K562/adr cell line; assay: leukemia cell growth inhibition, MTT; assay type: cell-based; details: Homo sapiens, 72 h
Text: as §3, §4

[17] = system: Jurkat cell line; assay: leukemia cell growth inhibition, MTT; assay type: cell-based; details: Homo sapiens, 72 h
Text: as §3, §4

[18] = system: H9 cell line; assay: leukemia cell growth inhibition, MTT; assay type: cell-based; details: Homo sapiens
Text: as §3, §4

[19] = system: NB4 cell line; assay: leukemia cell growth inhibition, MTT; assay type: cell-based; details: Homo sapiens, NB-4
Text: as §3, §4

[20] = system: Hep G2 cell line; assay: solid tumor cell growth inhibition, MTT; assay type: cell-based, human; details: Homo sapiens
Protocol: as §1, §2

[21] = 16 μg/mL compound, read-out: IR (cell proliferation inhibition rate)

Which results are given for `COC(=O)[C@]12CCC(C)(C)CC1C1=CCC3[C@@]4(C)CC(C(=O)NC5CC5)C(=O)C(C)(C)C4CC[C@@]3(C)[C@]1(C)CC2` (stereo partly shown) [BS-OA-034]?
inhibition at 16 µg/mL ([1]; RPMI8226, 16 μg/mL compound, 72 h, read-out: IR (cell proliferation inhibition rate)): 15.5%; IC50 ([1]; RPMI8226, 72 h): > 16 µg/mL; IC50 ([2]; A549, 72 h): > 16 µg/mL; inhibition at 16 µg/mL ([2]; A549, 16 μg/mL compound, 72 h, read-out: IR (cell proliferation inhibition rate)): 5.3%; IC50 ([3]; HeLa): > 16 µg/mL; inhibition at 16 µg/mL ([3]; Hela, 16 μg/mL compound, read-out: IR (cell proliferation inhibition rate)): 0.6%; inhibition at 16 µg/mL ([4]; Becap37, 16 μg/mL compound, 72 h, read-out: IR (cell proliferation inhibition rate)): -6.7%; IC50 ([4]; Becap37, 72 h): > 16 µg/mL; inhibition at 16 µg/mL [5, 21]: 18.2%; IC50 [5]: > 16 µg/mL; inhibition at 16 µg/mL [6, 21]: 16.7%; IC50 [6]: > 16 µg/mL; IC50 ([7]; HEp-2, 72 h): > 16 µg/mL; inhibition at 16 µg/mL ([7]; Hep-2, 16 μg/mL compound, 72 h, read-out: IR (cell proliferation inhibition rate)): 5.4%; inhibition at 16 µg/mL [8, 21]: -41%; IC50 [8]: > 16 µg/mL; inhibition at 16 µg/mL ([9]; CaES-17, 16 μg/mL compound, 72 h, read-out: IR (cell proliferation inhibition rate)): -6.7%; IC50 ([9]; CaES-17, 72 h): > 16 µg/mL; IC50 ([10]; PANC-1, 72 h): > 16 µg/mL; inhibition at 16 µg/mL ([10]; PANC-1, 16 μg/mL compound, 72 h, read-out: IR (cell proliferation inhibition rate)): -9.9%; IC50 ([11]; PC-3, 72 h): > 16 µg/mL; inhibition at 16 µg/mL ([11]; PC-3, 16 μg/mL compound, 72 h, read-out: IR (cell proliferation inhibition rate)): 19%; IC50 ([12]; MG-63, 72 h): > 16 µg/mL; inhibition at 16 µg/mL ([12]; MG-63, 16 μg/mL compound, 72 h, read-out: IR (cell proliferation inhibition rate)): -5.4%; IC50 ([13]; SK-OV-3, 72 h): > 16 µg/mL; inhibition at 16 µg/mL ([13]; SK-OV-3, 16 μg/mL compound, 72 h, read-out: IR (cell proliferation inhibition rate)): 21.3%; inhibition at 16 µg/mL ([14]; MGC 803, 16 μg/mL compound, 72 h, read-out: IR (cell proliferation inhibition rate)): -3.2%; IC50 ([14]; MGC 803, 72 h): > 16 µg/mL; inhibition at 16 µg/mL ([15]; Kasumi-1, 16 μg/mL compound, 72 h, read-out: IR (cell proliferation inhibition rate)): 22.6%; IC50 ([15]; Kasumi-1, 72 h): > 16 µg/mL; IC50 ([16]; K562/Adr): > 16 µg/mL; inhibition at 16 µg/mL ([16]; K562/adr, 16 μg/mL compound, read-out: IR (cell proliferation inhibition rate)): 25.3%; inhibition at 16 µg/mL [17, 21]: -19.6%; IC50 [17]: > 16 µg/mL; IC50 ([18]; H9, 72 h): > 16 µg/mL; inhibition at 16 µg/mL ([18]; H9, 16 μg/mL compound, 72 h, read-out: IR (cell proliferation inhibition rate)): 22.1%; inhibition at 16 µg/mL ([19]; NB4, 16 μg/mL compound, 72 h, read-out: IR (cell proliferation inhibition rate)): 22.3%; IC50 ([19]; NB4, 72 h): > 16 µg/mL; inhibition at 16 µg/mL ([20]; HepG2, 72 h, Hep G2, 16 μg/mL compound, 72 h, read-out: IR (cell proliferation inhibition rate)): 8.9%; IC50 ([20]; HepG2, Hep G2, 72 h): > 16 µg/mL
